The text below walks through data of US20120295982A1, “TREATING HUMAN MALE COPD PATIENTS WITH ORAL BEDORADRINE” (MediciNova, Inc., priority 2011, published 2012).

Counter-ions that a name gives are not always drawn.

Data set [1] concerns moderate-to-severe COPD patients. As to the kind of experiment: Phase Ib placebo-controlled test of i.v. MN-221 in moderate-to-severe COPD patients. Type of data set: in vivo, human. The following applies: for FEV1 increase as compared to baseline (average): end of infusion. How it is done:
This example provides certain preferred oral dosages for treating male COPD patients according to this invention. A randomized, double-blind, placebo-controlled phase Ib clinical test evaluated MN-221 in 48 moderate-to-severe COPD patients who received a 1 hour intravenous (i.v.) infusion of MN-221 at three different escalating dose levels (300 micrograms, 600 micrograms, or 1200 micrograms) or placebo.
(a) diagnosed (e.g., by clinical history, 20 pack/year smoking history, physical examination [PE], and spirometry) COPD treated for ≧3 months prior to Screen Visit 1; (b) ≧30% FEV1<80% and FEV1/FVC (forced vital capacity) ratio<0.7 at Screen Visits 1 and 2; and (c) increase in FEV1 of 12%, over the pre-albuterol FEV1 within 30 min after inhalation of up to 4 puffs of albuterol delivered by Metered Dose Inhaler (MDI) with spacer at the Screen Visit 1.
48 subjects with stable, moderate-to-severe chronic obstructive pulmonary disease were administered MN-221. The following does were administered. 10 μg/min for 15 min+3.3 μg/min for 45 min (1-hr infusion total dose 300 μg) or placebo; 20 μg/min for 15 min+6.67 μg/min for 45 min (1-hr infusion total dose 600 μg) or placebo; and 40 μg/min for 15 min+13.3 μg/min for 45 min (1-hr infusion total dose 1,200 μg) or placebo.

Data set [2] is described as follows: Oral bioavailability in rats. Type of data set: in vivo.
Data set [3] is described as follows: Oral bioavailability in rabbits. The following applies: rabbit, in vivo, read-out: Oral F %.

Consider `CN(C)C(=O)COc1ccc2c(c1)C[C@@H](NC[C@H](O)c1ccc(O)c(CCO)c1)CC2` [MN-221, bedoradrine sulfate], for which the “FEV1 increase as compared to baseline (average)” value in data set [1] (300 microgram 1-hr i.v. infusion, p=NS) was found to be 9.2%; in data set [1] (600 microgram 1-hr i.v. infusion, p=0.020), 16.2%; in data set [1] (1200 microgram 1-hr i.v. infusion, p=0.0025) it was 21.5%. For the same compound, in data set [1] (600 and 1200 μg i.v. groups, greatest during 1-3 hr post infusion), the “Mean changes in PEFR (L/sec)” value is “higher than the all placebo group”. Also, the “Mean changes in PEFR (% predicted)” value in data set [1] (600 and 1200 μg i.v. groups, greatest in first 3-4 hr post-infusion) was “higher than the all placebo group”. Besides, the “FEV1 (%, predicted)” value in data set [1] (MN-221 treated subjects, i.v. infusion) is “improved”. The tolerability entry in data set [1] (i.v. infusions 300-1200 μg, COPD patients) is “well tolerated”. In addition, in data set [2] (orally administered, female vs male rats), the “gender difference of oral bioavailability” value was “greater bioavailability in female rats compared to male rats”. In addition, the bioavailability in data set [2] (rat, in vivo, po, rats, read-out: Oral F %) is at most 3%; in data set [3], at most 3%.
